Reference: ChEMBL document CHEMBL4842340, “Development of Cagrilintide, a Long-Acting Amylin Analogue” (J Med Chem, 2021)
In brackets after ≈: the same amount, converted by molar mass. *1 amine or outer side, *2 acyl side, *3 side chain or, on linkers, in order; H or OH if unused. Where a SMILES comes first, the peptide text is derived from it. Bridges are numbered along the chain shown (N, C = ends). [ ]: non-standard residue; d: D form. The star is where a group is joined. C20 diacid = O=C(O)CCCCCCCCCCCCCCCCCCC(=O)*; γGlu = O=C(O)[C@H](CCC(=O)[*:2])N[*:1]

Columns and labels:
[1] = Agonist activity at human AMY3R (CT+RAMP3) expressed in Hollex1 cells incubated for 3 hrs by luminescence assay; assay type: cell-based; conditions: Hollex1, 3 h
[2] = Agonist activity at human calcitonin receptor expressed in BHK570 cells assessed as increase in intracellular cAMP concentration incubated for 3 hrs in absence of albumin by CRE luciferase reporter gene assay; assay type: cell-based; conditions: BHK570, 3 h
Homo sapiens [3] = organism: Homo sapiens; test: Ratio of EC50 for human calcitonin receptor expressed in BHK570 cells to EC50 for human AMY3R (CT+RAMP3) expressed in Hollex1 cells; assay type: cell-based
[4] = Agonist activity at rat AMY3R (CT+RAMP3) expressed in tk-ts13 cells assessed as increase in intracellular cAMP level incuabted for 25 mins by CRE luciferase reporter gene assay; assay type: cell-based; conditions: tk-ts13, 25 min
[5] = Agonist activity at rat calcitonin receptor expressed in BHK-13 cells assessed as increase in intracellular cAMP concentration incubated for 25 mins by CRE luciferase reporter gene assay; assay type: cell-based; conditions: BHK-13, 25 min
Rattus norvegicus [6] = organism: Rattus norvegicus; test: Ratio of EC50 for rat calcitonin receptor expressed in BHK-13 cells to EC50 for rat AMY3R (CT+RAMP3) expressed in tk-ts13 cells; assay type: cell-based
[7] = Displacement of [125I]-amylin from human AMY3R (CTR+RAMP3) expressed in BHK-13 cells measured after 120 mins by scintillation proximity assay; assay type: cell-based
[8] = Displacement of [125I]-calcitonin from human calcitonin receptor expressed in tk-ts 13 cells measured after 120 mins by scintillation proximity assay; assay type: cell-based; conditions: tk-ts13
Homo sapiens [9] = organism: Homo sapiens; test: Ratio of IC50 for displacement of [125I]-calcitonin from human calcitonin receptor expressed in tk-ts 13 cells to IC50 for displacement of [125I]-amylin from human AMY3R (CTR+RAMP3) expressed in BHK-13 cells; assay type: cell-based
[10] = Displacement of [125I]-amylin from rat AMY3R (CTR+RAMP3) expressed in BHK-13 cells measured after 120 mins by scintillation proximity assay; assay type: cell-based
[11] = Displacement of [125I]-calcitonin from rat calcitonin receptor expressed in tk-ts 13 cells measured after 120 mins by scintillation proximity assay; assay type: cell-based; conditions: tk-ts13
Rattus norvegicus [12] = organism: Rattus norvegicus; test: Ratio of IC50 for displacement of [125I]-calcitonin from rat calcitonin receptor expressed in tk-ts 13 cells to IC50 for displacement of [125I]-amylin from rat AMY3R (CTR+RAMP3) expressed in BHK-13 cells; assay type: cell-based
[13] = Solubility of the compound in lactate at pH 3 by UPLC analysis; assay type: physicochemical; conditions: lactate buffer
[14] = Solubility of the compound in lactate at pH 4 by UPLC analysis; assay type: physicochemical; conditions: lactate buffer
[15] = Solubility of the compound in lactate at pH 5 by UPLC analysis; assay type: physicochemical; conditions: lactate buffer
[16] = Solubility of the compound in bis-tris propane at pH 6 by UPLC analysis; assay type: physicochemical; conditions: bis-tris propane buffer
[17] = Solubility of the compound in bis-tris propane at pH 6.5 by UPLC analysis; assay type: physicochemical; conditions: bis-tris propane buffer
[18] = Solubility of the compound in bis-tris propane at pH 7 by UPLC analysis; assay type: physicochemical; conditions: bis-tris propane buffer
[19] = Solubility of the compound in bis-tris propane at pH 7.5 by UPLC analysis; assay type: physicochemical; conditions: bis-tris propane buffer
[20] = Solubility of the compound in bis-tris propane at pH 8 by UPLC analysis; assay type: physicochemical; conditions: bis-tris propane buffer
Insulin (Homo sapiens) [21] = target: Insulin (Homo sapiens) (UniProt P01308); test: Effect on insulin (unknown origin) amyloid fibril formation assessed as lag time in glycyl-glycine buffer at pH 4 measured after 45 hrs by thioflavin-T fluorescence assay
Sequence of Insulin (Homo sapiens) (P01308 whole entry): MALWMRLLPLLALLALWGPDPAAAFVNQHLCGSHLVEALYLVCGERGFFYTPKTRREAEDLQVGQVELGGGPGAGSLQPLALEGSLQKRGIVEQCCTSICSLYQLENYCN

Insulin (Homo sapiens) [22] = target: Insulin (Homo sapiens) (UniProt P01308); test: Effect on insulin (unknown origin) amyloid fibril formation assessed as peptide recovery in glycyl-glycine buffer at pH 4 measured after 45 hrs by thioflavin-T fluorescence assay relative to control; parameters: concentration or dose not given beside the values
Rattus norvegicus [23] = test: Reduction in food intake in Sprague-Dawley rat at 30 nmol/kg, sc administered as single dose measured upto 24 hrs relative to control; assay type: functional; parameters: scale not given: the % may be the effect or the level left; conditions: time hrs <=24
Rattus norvegicus [24] = test: Reduction in food intake in Sprague-Dawley rat at 30 nmol/kg, sc administered as single dose measured after 24 to 48 hrs relative to control; assay type: functional; parameters: scale not given: the % may be the effect or the level left; conditions: time 24-48 hrs
Rattus norvegicus [25] = test: Reduction in food intake in Sprague-Dawley rat at 3 nmol/kg, sc administered as single dose measured upto 24 hrs relative to control; assay type: functional; parameters: scale not given: the % may be the effect or the level left; conditions: time hrs <=24
Rattus norvegicus [26] = test: Reduction in food intake in Sprague-Dawley rat at 3 nmol/kg, sc administered as single dose measured after 24 to 48 hrs relative to control; assay type: functional; parameters: scale not given: the % may be the effect or the level left; conditions: time 24-48 hrs

Structure (SMILES) | EC50 [1] | EC50 [2] | Ratio EC50 (Homo sapiens [3]) | EC50 [4] | EC50 [5] | Ratio EC50 (Rattus norvegicus [6]) | IC50 [7] | IC50 [8] | Ratio IC50 (Homo sapiens [9]) | IC50 [10] | IC50 [11] | Ratio IC50 (Rattus norvegicus [12]) | solubility [13] | solubility [14] | solubility [15] | solubility [16] | solubility [17] | solubility [18] | solubility [19] | solubility [20] | other results
CC[C@H](C)[C@H](NC(=O)[C@@H]1CCCN1C(=O)CNC(=O)[C@H](Cc1ccccc1)NC(=O)[C@H](CC(N)=O)NC(=O)[C@H](CC(N)=O)NC(=O)[C@H](CO)NC(=O)[C@H](CO)NC(=O)[C@H](Cc1cnc[nH]1)NC(=O)[C@H](Cc1cnc[nH]1)NC(=O)[C@H](CC(C)C)NC(=O)[C@H](Cc1ccccc1)NC(=O)[C@H](CC(N)=O)NC(=O)[C@H](C)NC(=O)[C@H](CC(C)C)NC(=O)[C@H](CCCNC(=N)N)NC(=O)[C@H](CCC(N)=O)NC(=O)[C@@H](NC(=O)[C@H](C)NC(=O)[C@@H]1CSSC[C@H](NC(=O)[C@H](Cc2cnc[nH]2)NC(=O)CC[C@H](NC(=O)[C@H](Cc2cnc[nH]2)NC(=O)[C@H](Cc2cnc[nH]2)NC(=O)CCCCCCCCCCCCCCCCCCC(=O)O)C(=O)O)C(=O)N[C@@H](CC(N)=O)C(=O)N[C@@H]([C@@H](C)O)C(=O)N[C@@H](C)C(=O)N[C@@H]([C@@H](C)O)C(=O)N1)[C@@H](C)O)C(=O)N[C@@H](CC(C)C)C(=O)N1CCC[C@H]1C(=O)N1CCC[C@H]1C(=O)N[C@H](C(=O)N[C@@H](CC(N)=O)C(=O)N[C@H](C(=O)NCC(=O)N[C@@H](CO)C(=O)N[C@@H](CC(N)=O)C(=O)N[C@H](C(=O)N[C@@H](Cc1ccc(O)cc1)C(N)=O)[C@@H](C)O)C(C)C)[C@@H](C)O ({C20 diacid}-HH[γGlu]HCNTATCATQRLANFLHHSSNNFGPILPPTNVGSNTY-NH2; disulfide 5-10) | 0.074 nM | 0.136 nM | 2 | 0.335 nM | 14.1 nM | 42 | 0.216 nM | 1.3 nM | 6 | 0.149 nM | 3.33 nM | 22 | 200 µM (≈ 945 µg/mL) | 200 µM (≈ 945 µg/mL) | 200 µM (≈ 945 µg/mL) | 1 µM (≈ 4.72 µg/mL) | 1 µM (≈ 4.72 µg/mL) | 1 µM (≈ 4.72 µg/mL) | 1 µM (≈ 4.72 µg/mL) | 1 µM (≈ 4.72 µg/mL) | TIME (Insulin (Homo sapiens) [21]): 6 h; Activity (Insulin (Homo sapiens) [22]): 9%; Activity (Rattus norvegicus [23]): 75%; Activity (Rattus norvegicus [24]): 44%; Activity (Rattus norvegicus [25]): 32%; Activity (Rattus norvegicus [26]): 4%
CC[C@H](C)[C@H](NC(=O)[C@@H]1CCCN1C(=O)CNC(=O)[C@H](Cc1ccccc1)NC(=O)[C@H](CC(N)=O)NC(=O)[C@H](CC(N)=O)NC(=O)[C@H](CO)NC(=O)[C@H](CO)NC(=O)[C@H](CCC(=O)O)NC(=O)[C@H](Cc1cnc[nH]1)NC(=O)[C@H](CC(C)C)NC(=O)[C@H](Cc1ccccc1)NC(=O)[C@H](CCC(=O)O)NC(=O)[C@H](C)NC(=O)[C@H](CC(C)C)NC(=O)[C@H](CCCNC(=N)N)NC(=O)[C@H](CCC(N)=O)NC(=O)[C@@H](NC(=O)[C@H](C)NC(=O)[C@@H]1CSSC[C@H](NC(=O)[C@H](Cc2cnc[nH]2)NC(=O)CC[C@H](NC(=O)CCCCCCCCCCCCCCCCCCC(=O)O)C(=O)O)C(=O)N[C@@H](CC(N)=O)C(=O)N[C@@H]([C@@H](C)O)C(=O)N[C@@H](C)C(=O)N[C@@H]([C@@H](C)O)C(=O)N1)[C@@H](C)O)C(=O)N[C@@H](CC(C)C)C(=O)N1CCC[C@H]1C(=O)N1CCC[C@H]1C(=O)N[C@H](C(=O)N[C@@H](CC(N)=O)C(=O)N[C@H](C(=O)NCC(=O)N[C@@H](CO)C(=O)N[C@@H](CC(N)=O)C(=O)N[C@H](C(=O)N[C@@H](Cc1ccc(O)cc1)C(N)=O)[C@@H](C)O)C(C)C)[C@@H](C)O ({C20 diacid-γGlu}-HCNTATCATQRLAEFLHESSNNFGPILPPTNVGSNTY-NH2; disulfide 2-7) | 0.083 nM | 0.128 nM | 2 | 0.063 nM | 0.355 nM | 6 | 0.137 nM | 1.75 nM | 13 | 0.034 nM | 0.812 nM | 24 | 200 µM (≈ 891 µg/mL) | 200 µM (≈ 891 µg/mL) | 200 µM (≈ 891 µg/mL) | 52 µM (≈ 232 µg/mL) | 16 µM (≈ 71.3 µg/mL) | 15 µM (≈ 66.9 µg/mL) | 58 µM (≈ 259 µg/mL) | 138 µM (≈ 615 µg/mL) | TIME (Insulin (Homo sapiens) [21]): 11 h; Activity (Insulin (Homo sapiens) [22]): 0%; Activity (Rattus norvegicus [23]): 93%; Activity (Rattus norvegicus [24]): 92%; Activity (Rattus norvegicus [25]): 50%; Activity (Rattus norvegicus [26]): 45%
